# Measurements as given in US20100104628A1, “METHOD OF TREATING NEUROBLASTOMA” (priority 2007, published 2010).
# Experiments:
# NET = target: T1, NET (Homo sapiens, UniProt P23975); assay: NET competitive binding assay ([125I]MIBG displacement, SK-N-SH cells); details: 5 μM test compound, 2 hr incubation
# T1 construct: endogenous in cells; host or cells: SK-N-SH neuroblastoma cells
# Description: An assay to assess binding of various MIBG-analogs to the NET was performed by published methods (Vaidynathan et al, Nucl. Med. Commun. 25:947-955 (2004), Vaidynathan et al, Bioorg. Med. Chem. 12:1649-1656 (2004), Vaidynathan et al, Bioconjugate Chem. 12:798-806 (2001), Vaidynathan et al, Eur. J. Nucl. Med. Mol. Imaging 31:1362-1370 (2004)). In brief, neuroblastoma SK—N—SH cells (moderate levels of NET) were treated with [^125I]MIBG and with increasing concentrations of unlabeled MIBG or MIBG-analogs. At the end of a 2 hr incubation and appropriate work-up, the cell-bound radioactivity was counted. Total cell-bound radioactivity minus non-specific cell-bound radioactivity gave a value for specific binding which was plotted in FIG. 9 against the concentration of test compounds. At 5 μM, cold MIBG displaced “100%” of the labeled-MIBG (i.e., “zero” cell-bound radioactivity). At 5 μM, chloromethyl-MIBG displaced 83%; the disulfide MIBG-SS-ethyl and the ester MIBG-phenylbutyrate displaced 50-55%; and hydroxymethyl-MIBG displaced 27%.
# [1] = Stability / reaction kinetics by proton NMR (half-life); assay type: physicochemical; details: 37° C., pH 7.4, BisTris buffer, 5% DMSO
# Description: Proton NMR was used to determine the half-lives for chloro- and bromomethyl-MIBG (Table 1). These analogs react with nucleophiles via an SN2 mechanism; therefore, the rate of the reaction depends on the strength and concentration of the nucleophile as well as the nature of the leaving group. Thus, the half-lives of the analogs are predictably longer in buffer than they are in buffer with added glutathione (a relatively strong nucleophile) and, under the same conditions, the bromo analog (better leaving group) reacts faster than the chloro analog.
# SK—N-BE(2c) (high NET) = assay: Glutathione depletion in vitro, SK-N-BE(2c); assay type: cell-based
# Description: (§1) The NB cell line SK—N-BE(2c) (high net) was treated with MIBG, MIBG-disulfide dimer (MIGB-S—S-MIBG), chloromethyl-MIBG (cmMIBG), and BSO. For comparison, the human breast cancer line MCF7 (no NET) was treated with chloromethyl-MIBG and BSO. At specific times, intracellular glutathione in drug-treated cells was determined relative to that in untreated cells (control).
# SK—N-BE(2c) (high NET) cells were treated with a single concentration of chloromethyl-MIBG (25 μM at t=0). Glutathione concentrations in treated and untreated cells were measured at t=0.5, 1, 2, 3 and 4 hrs. Glutathione levels in drug-treated cells progressively fell, with a concentration 50% that of control at t 4 hrs (FIG. 10B).
# (§2) Cells were exposed to 5 μM chloromethyl-MIBG (cmMIBG), 25 μM BSO and a combination of 5 μM chloromethyl-MIBG+25 μM BSO (both) for 7 hrs. Compared to controls, chloromethyl-MIBG alone depleted glutathione by about 30% in SK—N—Be(2c) cells and 8% in MCF7. BSO, as expected, depleted MCF7 and SK—N—Be(2c) by similar amounts (42 and 54% of controls, respectively). In combination studies, chloromethyl-MIBG+BSO depleted levels by about 85% in the SK—N—Be(2c) cells and had much less effect on the MCF7 cells with glutathione reduced by 49% relative to controls.
# SK-N-BE(2c) (NET ++++) = assay: cells; assay type: cell-based; details: 24 hr assay, single agent, 1% DMSO; read-out: Cytotoxicity IC50
# in vitro = assay type: cell-based, human; details: human, 24 hr assay, single agent, 1% DMSO; read-out: Cytotoxicity IC50
# MCF7 (no NET) = assay: Glutathione depletion in vitro, MCF7; assay type: cell-based, human; details: 25 μM BSO, 7 hrs
# Description: as §1, §2
# T1 sequence (P23975 whole entry): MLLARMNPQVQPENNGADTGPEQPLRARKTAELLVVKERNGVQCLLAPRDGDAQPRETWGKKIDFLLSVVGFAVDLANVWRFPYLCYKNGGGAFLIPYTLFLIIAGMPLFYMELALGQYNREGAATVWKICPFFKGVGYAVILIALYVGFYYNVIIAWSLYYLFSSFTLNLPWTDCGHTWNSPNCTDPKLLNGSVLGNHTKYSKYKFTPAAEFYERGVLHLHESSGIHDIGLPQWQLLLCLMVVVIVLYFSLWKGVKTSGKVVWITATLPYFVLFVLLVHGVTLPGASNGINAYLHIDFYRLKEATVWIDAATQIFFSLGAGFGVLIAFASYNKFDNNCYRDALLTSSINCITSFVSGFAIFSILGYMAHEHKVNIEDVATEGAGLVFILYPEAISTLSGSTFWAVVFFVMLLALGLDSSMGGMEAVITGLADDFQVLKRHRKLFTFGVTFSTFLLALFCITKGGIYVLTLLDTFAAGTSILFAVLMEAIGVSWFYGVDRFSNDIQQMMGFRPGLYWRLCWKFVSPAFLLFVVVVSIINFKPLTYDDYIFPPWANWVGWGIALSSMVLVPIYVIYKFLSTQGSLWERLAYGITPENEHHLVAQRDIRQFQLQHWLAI
structure (smiles),measurement,setting,value
N=C(N)NCc1ccc(CO)c(I)c1 [hydroxymethyl-MIBG],displacement of [125I]MIBG (specific cell-bound radioactivity),NET,27%
N=C(N)NCc1ccc(CBr)c(I)c1 [Bromomethyl-MIBG],Half-life,[1],42.5 ± 0.7 min
same,Half-life w/10 eq GSH,[1]; 10 eq GSH,<0.083 min
"N=C(N)NCc1cccc([131I])c1 [MIBG, meta-iodobenzylguanidine]",displacement of [125I]MIBG (specific cell-bound radioactivity),NET,100%
same,effect on glutathione levels,"SK—N-BE(2c) (high NET); concentrations up to 25 μM, incubation up to 4 hrs",did not significantly affect glutathione levels
"ClCc1ccccc1 [chloromethyl-benzene, benzylchloride]",IC50,SK-N-BE(2c) (NET ++++),172 ± 31 µM
same,IC50 at 24 h,in vitro,390 ± 77 µM
"CCCCS(=N)(=O)CCC(N)C(=O)O (stereo not drawn) [BSO, buthionine sulfoximine]",glutathione depletion compared to controls,"SK—N-BE(2c) (high NET); 25 μM BSO, 7 hrs",54%
same,glutathione depletion compared to controls,MCF7 (no NET),42%
